Reference: BigSolDB 2.1

O=C1CCC(=O)CC1
solubility (mole fraction)
Settings | in acetone | in acetonitrile | in cyclohexane | in ethanol | in ethyl acetate | in isopropanol | in methanol | in methyl acetate | in n-butanol | in n-propanol
278.15 K | 0.177 | 0.241 | – | 0.0215 | 0.093 | 0.018 | 0.112 | 0.156 | 0.0113 | 0.0096
283.15 K | 0.21 | 0.273 | 0.000676 | 0.0301 | 0.117 | 0.0274 | 0.141 | 0.188 | 0.0181 | 0.0162
288.15 K | 0.248 | 0.311 | 0.000868 | 0.0479 | 0.146 | 0.0414 | 0.174 | 0.227 | 0.0293 | 0.0253
293.15 K | 0.29 | 0.35 | 0.00111 | 0.0777 | 0.179 | 0.0681 | 0.221 | 0.27 | 0.0436 | 0.0409
298.15 K | 0.338 | 0.391 | 0.00141 | 0.121 | 0.223 | 0.107 | 0.266 | 0.321 | 0.0654 | 0.0638
303.15 K | 0.391 | 0.434 | 0.00182 | 0.183 | 0.271 | 0.165 | 0.324 | 0.377 | 0.0954 | 0.0996
308.15 K | 0.454 | 0.481 | 0.00234 | 0.265 | 0.332 | 0.254 | 0.393 | 0.441 | 0.145 | 0.157
313.15 K | 0.52 | 0.533 | 0.00293 | 0.375 | 0.404 | 0.36 | 0.461 | 0.515 | 0.222 | 0.24
